Measured values as given in patent US5081225A, “Gram-positive and gram-negative antibacterial compounds from the microorganism, Janthinobacterium lividum” (E. R. Squibb & Sons, Inc., priority 1989, dated 1992).

How the values were obtained:
Enterobacter aerogenes = assay: agar dilution MIC, aerobic organisms; conditions: Table 1; Enterobacter aerogenes SC 10078
Citrobacter freundii = assay: agar dilution MIC, aerobic organisms; conditions: Table 1; Citrobacter freundii SC 9518
Proteus mirabilis = assay: agar dilution MIC, aerobic organisms; conditions: Table 1; Proteus mirabilis SC 3855
Nocardia asteroides = assay: agar dilution MIC, aerobic organisms; conditions: Table 2; Nocardia asteroides SC 2626
Klebsiella aerogenes = assay: agar dilution MIC, aerobic organisms; conditions: Table 1; Klebsiella aerogenes SC 10440
[1] = agar dilution MIC, aerobic organisms; conditions: Table 2; Nocardia monocytogenes SC 8523
Klebsiella pneumoniae = assay: agar dilution MIC, aerobic organisms; conditions: Table 1; Klebsiella pneumoniae SC 9527
Salmonella typhosa = assay: agar dilution MIC, aerobic organisms; conditions: Table 1; Salmonella typhosa SC 1195
Bacillus subtilis = assay: agar dilution MIC, aerobic organisms; conditions: Table 2; Bacillus subtilis SC 3777
Pseudomonas aeruginosa = assay: agar dilution MIC, aerobic organisms; conditions: Table 1
Enterobacter cloacae = assay: agar dilution MIC, aerobic organisms; conditions: Table 1; Enterobacter cloacae SC 8236
[2] = test system: Staphylococcus epidermidis; assay: agar dilution MIC, aerobic organisms; conditions: Table 2
[3] = test system: Staphylococcus saprophyticus; assay: agar dilution MIC, aerobic organisms; conditions: Table 2; Staphylococcus saprophyticus SC 12875
Staphylococcus aureus = assay: agar dilution MIC, aerobic organisms
Streptococcus faecalis = assay: agar dilution MIC, aerobic organisms
[4] = stability under acidic conditions (observed during isolation); format: physicochemical
Protocol: The methanol extract is added to MCI GEL CHP20P™ (CHP20P) in water and the mixture is stirred for one hour. The charged resin is collected by vacuum filtration and washed with methanol, water, and acetonitrile. The charged resin is then packed in a column and the antibiotics are eluted with acetonitrile-water-formic acid. Further purification is achieved by chromatography on SEPHADEX LH-20™ in acetonitrile-water. Partial resolution of the three antibiotics, janthinocin A, B, and C, is effected by chromatography on CHP20P eluting with a gradient of acetonitrile-water-formic acid. Final separation and purification of janthinocins B and C is achieved by chromaography on CHP20P eluting with an acetonitrile-aqueous ammonium dihydrogen phosphate buffer gradient, followed by desalting on CHP20P, eluting with acetonitrile-water-formic acid, to give the pure antibiotics as off white powders. […] When janthinocin C is present, it co-elutes with janthinocin B in each of the initial chromatographies.

Proteus rettgeri = assay: agar dilution MIC, aerobic organisms; conditions: Table 1; Proteus rettgeri SC 8479
Streptococcus agalactiae = assay: agar dilution MIC, aerobic organisms
Escherichia coli = assay: agar dilution MIC, aerobic organisms; conditions: Table 1
Serratia marcescens = assay: agar dilution MIC, aerobic organisms; conditions: Table 1; Serratia marcescens SC 9783
Micrococcus luteus = assay: agar dilution MIC, aerobic organisms; conditions: Table 1; Micrococcus luteus SC 2495
[5] = test system: Acinetobacter calcoaceticus; assay: agar dilution MIC, aerobic organisms; conditions: Table 1; Acinetobacter calcoaceticus SC 8333
Shigella sonnei = assay: agar dilution MIC, aerobic organisms; format: cell-based; conditions: Table 1; Shigella sonnei SC 8449
Description: The composition of K-10 agar was:

Proteus vulgaris = assay: agar dilution MIC, aerobic organisms; conditions: Table 1; Proteus vulgaris SC 9416
[6] = Staphylococcus epidermidis SC 9052 (Penicillin S)
[7] = Staphylococcus epidermidis SC 9083 (Penicillin R)
[8] = Staphylococcus epidermidis SC 9087 (Penicillin R)
[9] = Staphylococcus epidermidis SC 9607 (Penicillin R)
[10] = Staphylococcus epidermidis SC 10547 (Penicillin R)
[11] = Table 1, Staphylococcus aureus SC 1276
[12] = Table 1, Staphylococcus aureus SC 2399
[13] = Table 1, Staphylococcus aureus SC 2400
[14] = Table 1, Staphylococcus aureus SC 10165
[15] = Table 2, Staphylococcus aureus SC 2399 (Penicillin S)
[16] = Table 2, Staphylococcus aureus SC 2400 (Penicillin R)
[17] = Table 2, Staphylococcus aureus SC 3184 (Methicillin R)
[18] = Table 2, Staphylococcus aureus SC 9593 (Penicillin R)
[19] = Table 2, Staphylococcus aureus SC 9998 (Penicillin R)
[20] = Table 2, Staphylococcus aureus SC 10014 (Methicillin R)
[21] = Table 2, Staphylococcus aureus SC 10016 (Tetracycline R)
[22] = Table 2, Staphylococcus aureus SC 10020 (Methicillin R)
[23] = Table 2, Staphylococcus aureus SC 10820 (Erythromycin R)
[24] = Table 2, Staphylococcus aureus SC 11239 (Gentamicin R)
[25] = Table 2, Staphylococcus aureus SC 12691 (Erythromycin R)
[26] = Table 1, Streptococcus faecalis SC 9011
[27] = Table 2, Streptococcus faecalis SC 9011
[28] = Table 2, Streptococcus faecalis SC 9376
[29] = Table 2, Streptococcus faecalis SC 10938
[30] = Table 1, Streptococcus agalactiae SC 9287
[31] = Table 2, Streptococcus agalactiae SC 9285
[32] = Table 2, Streptococcus agalactiae SC 9287

In the case of janthinocin A, the “MIC” value (Enterobacter aerogenes) is reported as 25 µg/mL, the “MIC” value (Citrobacter freundii) is reported as 25 µg/mL and the “MIC” value (Proteus mirabilis) is reported as 100 µg/mL. For the same substance, the “MIC” value (Nocardia asteroides) was 0.8 µg/mL, the “MIC” value (Klebsiella aerogenes) was 25 µg/mL and the “MIC” value [1] was 0.8 µg/mL. The “MIC” value (Klebsiella pneumoniae) was 25 µg/mL, the “MIC” value (Salmonella typhosa) was 12.5 µg/mL and the “MIC” value (Bacillus subtilis) was 0.4 µg/mL. For the same substance, the “MIC” value (Pseudomonas aeruginosa; Pseudomonas aeruginosa SC 8329) was 100 µg/mL, the “MIC” value (Pseudomonas aeruginosa; Pseudomonas aeruginosa SC 9545) was 50 µg/mL and the “MIC” value (Enterobacter cloacae) was 25 µg/mL. The “MIC” value [2, 6] was 0.8 µg/mL, the “MIC” value [2, 7] was 0.8 µg/mL and the “MIC” value [2, 8] was 0.8 µg/mL. The “MIC” value [2, 9] was 0.4 µg/mL, the “MIC” value [2, 10] was 0.8 µg/mL and the “MIC” value [3] was 0.8 µg/mL. The “MIC” value (Staphylococcus aureus; [11]) was 0.8 µg/mL, the “MIC” value (Staphylococcus aureus; [12]) was 1.6 µg/mL and the “MIC” value (Staphylococcus aureus; [13]) was 1.6 µg/mL. For the same substance, the “MIC” value (Staphylococcus aureus; [14]) was 1.6 µg/mL, the “MIC” value (Staphylococcus aureus; [15]) was 0.8 µg/mL and the “MIC” value (Staphylococcus aureus; [16]) was 0.4 µg/mL. The “MIC” value (Staphylococcus aureus; [17]) was 1.6 µg/mL, the “MIC” value (Staphylococcus aureus; [18]) was 0.8 µg/mL and the “MIC” value (Staphylococcus aureus; [19]) was 0.8 µg/mL. For the same substance, the “MIC” value (Staphylococcus aureus; [20]) was 0.4 µg/mL, the “MIC” value (Staphylococcus aureus; [21]) was 0.2 µg/mL and the “MIC” value (Staphylococcus aureus; [22]) was 0.4 µg/mL. The “MIC” value (Staphylococcus aureus; [23]) was 0.8 µg/mL, the “MIC” value (Staphylococcus aureus; [24]) was 0.8 µg/mL and the “MIC” value (Staphylococcus aureus; [25]) was 0.4 µg/mL. For the same substance, the “MIC” value (Streptococcus faecalis; [26]) was 1.6 µg/mL, the “MIC” value (Streptococcus faecalis; [27]) was 0.8 µg/mL and the “MIC” value (Streptococcus faecalis; [28]) was 0.8 µg/mL. The “MIC” value (Streptococcus faecalis; [29]) was 1.6 µg/mL, the chemical stability [4] was “converted to janthinocin C under acidic conditions” and the “MIC” value (Proteus rettgeri) was 50 µg/mL. For the same substance, the “MIC” value (Streptococcus agalactiae; [30]) was 0.2 µg/mL, the “MIC” value (Streptococcus agalactiae; [31]) was 0.4 µg/mL and the “MIC” value (Streptococcus agalactiae; [32]) was 0.4 µg/mL. The “MIC” value (Escherichia coli; Escherichia coli SC 8294) was 25 µg/mL, the “MIC” value (Escherichia coli; Escherichia coli SC 10896) was 6.3 µg/mL and the “MIC” value (Escherichia coli; Escherichia coli SC 10909) was 6.3 µg/mL. The “MIC” value (Serratia marcescens) was 25 µg/mL and the “MIC” value (Micrococcus luteus) was 0.2 µg/mL.
For janthinocin B, the “MIC” value (Enterobacter aerogenes) was 50 µg/mL, the “MIC” value (Citrobacter freundii) was 25 µg/mL and the “MIC” value (Proteus mirabilis) was 100 µg/mL. The “MIC” value (Nocardia asteroides) was 3.1 µg/mL, the “MIC” value (Klebsiella aerogenes) was 50 µg/mL and the “MIC” value [1] was 1.6 µg/mL. For the same substance, the “MIC” value (Klebsiella pneumoniae) was 25 µg/mL, the “MIC” value (Salmonella typhosa) was 12.5 µg/mL and the “MIC” value [5] was 25 µg/mL. For the same substance, the “MIC” value (Bacillus subtilis) was 0.1 µg/mL, the “MIC” value (Pseudomonas aeruginosa; Pseudomonas aeruginosa SC 8329) was 100 µg/mL and the “MIC” value (Pseudomonas aeruginosa; Pseudomonas aeruginosa SC 9545) was 50 µg/mL. For the same substance, the “MIC” value (Enterobacter cloacae) was 50 µg/mL, the “MIC” value [2, 6] was 0.4 µg/mL and the “MIC” value [2, 7] was 0.4 µg/mL. For the same substance, the “MIC” value [2, 8] was 0.4 µg/mL, the “MIC” value [2, 9] was 0.4 µg/mL and the “MIC” value [2, 10] was 0.4 µg/mL. For the same substance, the “MIC” value [3] was 0.4 µg/mL, the “MIC” value (Staphylococcus aureus; [11]) was 0.4 µg/mL and the “MIC” value (Staphylococcus aureus; [12]) was 1.6 µg/mL. The “MIC” value (Staphylococcus aureus; [13]) was 1.6 µg/mL, the “MIC” value (Staphylococcus aureus; [14]) was 0.8 µg/mL and the “MIC” value (Staphylococcus aureus; [15]) was 0.4 µg/mL. For the same substance, the “MIC” value (Staphylococcus aureus; [16]) was 0.8 µg/mL, the “MIC” value (Staphylococcus aureus; [17]) was 0.4 µg/mL and the “MIC” value (Staphylococcus aureus; [18]) was 0.4 µg/mL. The “MIC” value (Staphylococcus aureus; [19]) was 0.1 µg/mL, the “MIC” value (Staphylococcus aureus; [20]) was 0.4 µg/mL and the “MIC” value (Staphylococcus aureus; [21]) was 0.4 µg/mL. The “MIC” value (Staphylococcus aureus; [22]) was 0.4 µg/mL, the “MIC” value (Staphylococcus aureus; [23]) was 0.2 µg/mL and the “MIC” value (Staphylococcus aureus; [24]) was 0.2 µg/mL. For the same substance, the “MIC” value (Staphylococcus aureus; [25]) was 0.4 µg/mL, the “MIC” value (Streptococcus faecalis; [26]) was 1.6 µg/mL and the “MIC” value (Streptococcus faecalis; [27]) was 1.6 µg/mL. For the same substance, the “MIC” value (Streptococcus faecalis; [28]) was 1.6 µg/mL, the “MIC” value (Streptococcus faecalis; [29]) was 0.8 µg/mL and the “MIC” value (Proteus rettgeri) was 100 µg/mL. For the same substance, the “MIC” value (Streptococcus agalactiae; [30]) was < 0.05 µg/mL, the “MIC” value (Streptococcus agalactiae; [31]) was < 0.05 µg/mL and the “MIC” value (Streptococcus agalactiae; [32]) was < 0.05 µg/mL. The “MIC” value (Escherichia coli; Escherichia coli SC 8294) was 25 µg/mL, the “MIC” value (Escherichia coli; Escherichia coli SC 10896) was 6.3 µg/mL and the “MIC” value (Escherichia coli; Escherichia coli SC 10909) was 6.3 µg/mL. For the same substance, the “MIC” value (Serratia marcescens) was 50 µg/mL and the “MIC” value (Micrococcus luteus) was 0.2 µg/mL.
In the case of janthinocin C, the “MIC” value (Enterobacter aerogenes) is reported as > 100 µg/mL, the “MIC” value (Citrobacter freundii) is reported as 100 µg/mL and the “MIC” value (Proteus mirabilis) is reported as > 100 µg/mL. The “MIC” value (Klebsiella aerogenes) was 100 µg/mL, the “MIC” value (Klebsiella pneumoniae) was > 100 µg/mL and the “MIC” value (Salmonella typhosa) was 100 µg/mL. The “MIC” value [5] was 25 µg/mL, the “MIC” value (Shigella sonnei) was 100 µg/mL and the “MIC” value (Proteus vulgaris) was > 100 µg/mL. The “MIC” value (Pseudomonas aeruginosa; Pseudomonas aeruginosa SC 8329) was > 100 µg/mL, the “MIC” value (Pseudomonas aeruginosa; Pseudomonas aeruginosa SC 9545) was > 100 µg/mL and the “MIC” value (Enterobacter cloacae) was > 100 µg/mL. The “MIC” value (Staphylococcus aureus; [11]) was 1.6 µg/mL, the “MIC” value (Staphylococcus aureus; [12]) was 3.1 µg/mL and the “MIC” value (Staphylococcus aureus; [13]) was 3.1 µg/mL. For the same substance, the “MIC” value (Staphylococcus aureus; [14]) was 1.6 µg/mL, the “MIC” value (Streptococcus faecalis; [26]) was 12.5 µg/mL and the “MIC” value (Proteus rettgeri) was > 100 µg/mL. For the same substance, the “MIC” value (Streptococcus agalactiae; [30]) was 0.8 µg/mL, the “MIC” value (Escherichia coli; Escherichia coli SC 8294) was > 100 µg/mL and the “MIC” value (Escherichia coli; Escherichia coli SC 10857) was 50 µg/mL. The “MIC” value (Escherichia coli; Escherichia coli SC 10896) was 50 µg/mL, the “MIC” value (Escherichia coli; Escherichia coli SC 10909) was 25 µg/mL and the “MIC” value (Serratia marcescens) was > 100 µg/mL. For the same substance, the “MIC” value (Micrococcus luteus) was 1.6 µg/mL.
